This is an account of results in patent US20260174766A1, “COMBINATION OF MENIN INHIBITOR(S) AND IMMUNOPROTEASOME INHIBITOR(S) FOR TREATMENT OF LEUKEMIA” (Medizinische Hochschule Hannover, priority 2022, published 2026).

SMILES strings stand for the structures.

Assay [1] relates to primary human leukemia cells harboring an MLL-AF4 fusion. As to the kind of experiment: MLL-AF4 patient-derived xenograft model with in vivo treatment and limiting dilution assay. As to conditions: ELDA; engraftment >1% hCD45+ in peripheral blood three months after transplantation; DMSO 1/247973. The arrangement: species or system mouse. An excerpt:
NOD.Cg-Prkdc^scid Il2rg^tm1Wjl Tg(CMV-IL3, CSF2, KITLG) 1Eav/MloySzJ (NSGS), NOD.Cg-Prkdc^scid Il2rg^tm1Wjl/SzJ (NSG) or NOD.Cg-Prkdc^scid Il2rg^tm1Wjl/RJ (NXG) were obtained from The Jackson Laboratory (Bar Harbor, ME, USA). 8-12-weeks old adult mice (male and female) were irradiated with 2 Gy (single dose) before transplantation. 1×10^5 MOLM-13, ML-2 or MV-4; 11 cells transduced with either of two PSMB8/LMP7 shRNAs or non-targeting control; with a pLEX vector containing the sequence of BASP1 or an empty vector; or treated ex vivo with the indicated inhibitors were injected intravenously via the tail vein. For patient derived xenograft experiments (PDX) of human MLLr leukemia we used an improved model for human HSC transplantation and analysis, that has been developed from immune-deficient mouse strains containing Kit mutations: NOD.Cg-^KitW-41J Prkdc^scid Il2rg^tm1Wjl/WaskJ (NSGW41) (Cosgun et al., 2014). […] Human myeloid engraftment (hCD45+ CD13+) was analyzed by flow cytometry. […]
FIGS. 4J-4K show number of engrafted mice per dilution (engraftment is considered if the percentage of hCD45+ cells is >1% in peripheral blood three months after transplantation) is shown and leukemic stem cell (LSC) frequency calculated using the ELDA (Extreme Limiting Dilution Assay) software (reference). […]

The test system of the next assay is MLLr cell lines. As to the kind of experiment: Cell growth (cell counting after trypan blue exclusion) of MLLr cell lines. The assay is classed as cell-based, human. Conditions: 250-500 nM; MOLM-13, MV-4;11, ML-2, KOPN-8; FIG. 1H. The method, then: MOLM-13, MONO-MAC-6, THP-1, KOPN-8, ML-2, MV-4;11, OCI-AML3, U-937, KASUMI-1, K-562, HL-60 and LAMA-84 cells were purchased from DSMZ (Braunschweig, Germany). Cas9-Blast cell lines are subclones of the respective cell lines and stably transduced with lentiCas9-Blast (Addgene plasmid #52962). Cells were cultured in RPMI 1640 medium (Thermo Fisher Scientific, Waltham, MA, USA) supplemented with 10-20% FBS (Thermo Fisher Scientific) in a humid atmosphere of 5% CO2 at 37° C. MV4;11 cells harboring Menin-inhibitor resistance mediating mutations of Menin were generated by CRISPR-Cas9 technology.
Cellular proliferation was assessed by cell counting after trypan blue exclusion. Apoptosis of cells was measured by flow cytometry using Annexin V/SYTOX® Blue staining following the manufacturer's instruction.

Regarding `Cc1c(CN2CCC(Nc3ncnc4sc(CC(F)(F)F)cc34)CC2)ccc2c1cc(C#N)n2Cc1cn[nH]c1` [MI-503, 4-Methyl-1-(1H-pyrazol-4-ylmethyl)-5-[[4-[[6-(2,2,2-trifluoroethyl)thieno[2,3-d]pyrimidin-4-yl]amino]-1-piperidinyl]methyl]-1H-indole-2-carbonitrile], in assay [1], the LSC frequency was 1/363914.
Consider `O=C(N[C@H](Cc1coc2ccccc12)B(O)O)[C@@H]1C[C@@H]2CC[C@H]1O2` [M3258, ((S)-2-(benzofuran-3-yl)-1-((1R,2R,4S)-7-oxabicyclo[2.2.1]heptane-2-carboxamido)ethyl)boronic acid], for which the “reduction of cell growth in MLL-rearranged human AML cell lines” value with MLLr cell lines was “recapitulated”.
